Experimental data as given in patent US11697648B2, “Fused pyrimidine pyridinone compounds as JAK inhibitors” (THERAVANCE BIOPHARMA R&D IP, LLC, priority 2019, dated 2023).

Legend:
JAK2 = JAK2 (Homo sapiens (Human), UniProt O60674); experiment: Biochemical JAK2 kinase assay (LanthaScreen)
Procedure: (§1) Assay 1: Biochemical JAK and Tyk2 Kinase Assays
(§2) A panel of four LanthaScreen JAK biochemical assays (JAK1, 2, 3 and Tyk2) were carried in a common kinase reaction buffer (50 mM HEPES, pH 7.5, 0.01% Brij-35, 10 mM MgCl2, and 1 mM EGTA). Recombinant GST-tagged JAK enzymes and a GFP-tagged STAT1 peptide substrate were obtained from Life Technologies.
(§3) Serially or discretely diluted compounds were pre-incubated with each of the four JAK enzymes and the substrate in white 384-well microplates (Corning) at ambient temperature for 1 h. ATP was subsequently added to initiate the kinase reactions in 10 μL total volume, with 1% DMSO. […] Kinase reactions were allowed to proceed for 1 hour at ambient temperature before a 10 μL preparation of EDTA (10 mM final concentration) and Tb-anti-pSTAT1 (pTyr701) antibody (Life Technologies, 2 nM final concentration) in TR-FRET dilution buffer (Life Technologies) was added. The plates were allowed to incubate at ambient temperature for 1 h before being read on the EnVision reader (Perkin Elmer). Emission ratio signals (520 nm/495 nm) were recorded and utilized to calculate the percent inhibition values based on DMSO and background controls.
(§4) For dose-response analysis, percent inhibition data were plotted vs. compound concentrations, and IC50 values were determined from a 4-parameter robust fit model with the Prism software (GraphPad Software). Results were expressed as pIC50 (negative logarithm of IC50) and subsequently converted to pKi (negative logarithm of dissociation constant, Ki) using the Cheng-Prusoff equation.

Tyk2 = Tyk2 (Homo sapiens (Human), UniProt P29597); experiment: Biochemical Tyk2 kinase assay (LanthaScreen)
Procedure: as §1, §2, §3, §4

[1] = test system: IL-2 stimulated STAT5 phosphorylation in Tall-1 human T cell line (JAK3); experiment: Cellular JAK3 potency assay: inhibition of IL-2 stimulated pSTAT5 in Tall-1 T cells; format: cell-based
Procedure: Assay 2: Cellular JAK3 Potency Assay: Inhibition of IL-2 Stimulated pSTAT5 in Tall-1 T Cells
The potency of test compounds for inhibition of interleukin-2 (IL-2) stimulated STAT5 phosphorylation was measured in the Tall-1 human T cell line (DSMZ) using AlphaLisa. Because IL-2 signals through JAK3, this assay provides a measure of JAK3 cellular potency.
Phosphorylated STAT5 was measured via the AlphaLISA SureFire Ultra pSTAT5 (Tyr694/699) kit (PerkinElmer).
Human T cells from the Tall-1 cell line were cultured in a 37° C., 5% CO2 humidified incubator in RPMI (Life Technologies) supplemented with 15% Heat Inactivated Fetal Bovine Serum (FBS, Life Technologies), 2 mM Glutamax (Life Technologies), 25 mM HEPES (Life Technologies) and 1× Pen/Strep (Life Technologies). Compounds were serially diluted in DMSO and dispensed acoustically to empty wells. Assay media (phenol red-free DMEM (Life Technologies) supplemented with 10% FBS (ATCC)) was dispensed (4 μL/well) and plates shaken at 900 rpm for 10 inns. Cells were seeded at 45,000 cells/well in assay media (4 μL/well), and incubated at 37° C., 5% CO2 for 1 hour, followed by the addition of IL-2 (R&D Systems; final concentration 300 ng/ml) in pre-warmed assay media (4 μL) for 30 minutes. After cytokine stimulation, cells were lysed with 6 ul of 3× AlphaLisa Lysis Buffer (PerkinElmer) containing 1× PhosStop and Complete tablets (Roche). The lysate was shaken at 900 rpm for 10 minutes at room temperature (RT). Phosphorylated STAT5 was measured via the pSTAT5 AlphaLisa kit (PerkinElmer). Freshly prepared acceptor bead mixture was dispensed onto lysate (5 μL) under green filtered <100 lux light. Plates were shaken at 900 rpm for 2 mins, briefly spun down, and incubated for 2 hrs at RT in the dark. Donor beads were dispensed (5 μL) under green filtered <100 lux light. Plates were shaken at 900 rpm for 2 minutes, briefly spun down, and incubated overnight at RT in the dark. Luminescence was measured with excitation at 689 nm and emission at 570 nm using an EnVision plate reader (PerkinElmer) under green filtered <100 lux light.
To determine the inhibitory potency of test compounds in response to IL-2, the average emission intensity of beads bound to pSTAT5 was measured in a human T cell line. IC50 values were determined from analysis of the inhibition curves of signal intensity versus compound concentration. Data are expressed as pIC50 (negative decadic logarithm IC50) values (mean standard deviation).

JAK3 = JAK3 (Homo sapiens (Human), UniProt P52333); experiment: Biochemical JAK3 kinase assay (LanthaScreen)
Procedure: as §1, §2, §3, §4

JAK1 = JAK1 (Homo sapiens (Human), UniProt P23458); experiment: Biochemical JAK1 kinase assay (LanthaScreen)
Procedure: as §1, §2, §3, §4

[2] = IL-2 stimulated pSTAT5, Tall-1 T cells
[3] = selectivity JAK3 over JAK1, difference of pKi
[4] = IL-2 stimulated pSTAT5 in Tall-1 T cells
[5] = selectivity, difference of pKi values

Chain of JAK3 (P52333 whole entry): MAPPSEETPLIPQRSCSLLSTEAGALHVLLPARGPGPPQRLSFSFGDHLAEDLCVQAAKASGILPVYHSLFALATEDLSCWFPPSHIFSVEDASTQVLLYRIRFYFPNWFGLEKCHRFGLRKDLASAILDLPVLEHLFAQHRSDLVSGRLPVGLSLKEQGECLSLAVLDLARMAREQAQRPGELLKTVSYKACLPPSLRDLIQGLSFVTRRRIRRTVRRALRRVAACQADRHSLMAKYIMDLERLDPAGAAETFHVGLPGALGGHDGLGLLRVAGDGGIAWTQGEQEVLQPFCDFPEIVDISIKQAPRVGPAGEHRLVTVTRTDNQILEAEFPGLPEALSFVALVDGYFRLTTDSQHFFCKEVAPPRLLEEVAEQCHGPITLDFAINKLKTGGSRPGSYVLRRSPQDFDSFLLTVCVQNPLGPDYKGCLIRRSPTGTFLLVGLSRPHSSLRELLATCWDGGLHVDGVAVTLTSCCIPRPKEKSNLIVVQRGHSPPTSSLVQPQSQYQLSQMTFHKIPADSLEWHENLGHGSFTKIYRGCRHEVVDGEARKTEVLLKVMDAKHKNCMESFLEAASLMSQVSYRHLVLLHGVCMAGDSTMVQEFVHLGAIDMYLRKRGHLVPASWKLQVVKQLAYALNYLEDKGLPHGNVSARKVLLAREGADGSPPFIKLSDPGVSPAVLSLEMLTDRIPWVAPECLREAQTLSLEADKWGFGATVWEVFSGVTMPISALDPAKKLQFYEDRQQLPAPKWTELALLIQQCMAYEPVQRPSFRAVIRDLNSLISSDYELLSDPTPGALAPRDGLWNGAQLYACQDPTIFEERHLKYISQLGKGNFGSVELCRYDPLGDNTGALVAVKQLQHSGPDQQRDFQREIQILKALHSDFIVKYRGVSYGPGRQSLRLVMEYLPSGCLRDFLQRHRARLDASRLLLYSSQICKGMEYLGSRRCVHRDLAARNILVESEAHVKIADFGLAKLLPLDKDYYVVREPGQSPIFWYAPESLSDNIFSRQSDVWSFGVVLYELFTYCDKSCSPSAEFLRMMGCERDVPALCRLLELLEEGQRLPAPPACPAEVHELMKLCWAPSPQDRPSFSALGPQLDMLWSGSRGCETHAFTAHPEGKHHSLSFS
Chain of JAK1 (P23458 whole entry): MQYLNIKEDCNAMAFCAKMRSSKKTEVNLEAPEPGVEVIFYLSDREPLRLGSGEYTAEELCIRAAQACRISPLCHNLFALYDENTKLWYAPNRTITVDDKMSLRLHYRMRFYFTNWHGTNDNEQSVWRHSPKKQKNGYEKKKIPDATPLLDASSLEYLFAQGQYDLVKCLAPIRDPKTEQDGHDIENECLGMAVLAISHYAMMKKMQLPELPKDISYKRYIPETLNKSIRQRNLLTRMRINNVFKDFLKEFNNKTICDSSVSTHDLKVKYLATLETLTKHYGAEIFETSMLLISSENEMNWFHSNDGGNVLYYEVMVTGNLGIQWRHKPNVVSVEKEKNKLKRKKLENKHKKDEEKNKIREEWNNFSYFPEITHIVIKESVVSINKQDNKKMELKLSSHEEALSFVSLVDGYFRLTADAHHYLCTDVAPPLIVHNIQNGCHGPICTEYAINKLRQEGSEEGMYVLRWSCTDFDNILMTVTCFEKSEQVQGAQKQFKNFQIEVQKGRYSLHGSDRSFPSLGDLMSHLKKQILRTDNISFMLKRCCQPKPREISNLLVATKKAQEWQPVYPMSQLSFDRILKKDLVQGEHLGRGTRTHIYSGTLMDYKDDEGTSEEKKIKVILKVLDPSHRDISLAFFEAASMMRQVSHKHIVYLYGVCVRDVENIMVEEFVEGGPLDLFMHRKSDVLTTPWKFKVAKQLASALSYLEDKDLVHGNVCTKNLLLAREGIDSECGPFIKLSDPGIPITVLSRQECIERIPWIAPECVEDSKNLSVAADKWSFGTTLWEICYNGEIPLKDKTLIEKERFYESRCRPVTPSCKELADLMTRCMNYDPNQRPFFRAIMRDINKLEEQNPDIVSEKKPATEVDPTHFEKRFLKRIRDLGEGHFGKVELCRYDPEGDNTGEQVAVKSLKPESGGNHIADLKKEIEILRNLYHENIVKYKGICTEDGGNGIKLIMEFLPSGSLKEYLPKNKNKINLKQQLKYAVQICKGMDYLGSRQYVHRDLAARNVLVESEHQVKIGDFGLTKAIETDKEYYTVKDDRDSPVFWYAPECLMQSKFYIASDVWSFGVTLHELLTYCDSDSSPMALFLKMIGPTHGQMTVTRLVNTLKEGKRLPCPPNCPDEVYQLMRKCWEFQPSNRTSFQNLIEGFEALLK
Chain of Tyk2 (P29597 whole entry): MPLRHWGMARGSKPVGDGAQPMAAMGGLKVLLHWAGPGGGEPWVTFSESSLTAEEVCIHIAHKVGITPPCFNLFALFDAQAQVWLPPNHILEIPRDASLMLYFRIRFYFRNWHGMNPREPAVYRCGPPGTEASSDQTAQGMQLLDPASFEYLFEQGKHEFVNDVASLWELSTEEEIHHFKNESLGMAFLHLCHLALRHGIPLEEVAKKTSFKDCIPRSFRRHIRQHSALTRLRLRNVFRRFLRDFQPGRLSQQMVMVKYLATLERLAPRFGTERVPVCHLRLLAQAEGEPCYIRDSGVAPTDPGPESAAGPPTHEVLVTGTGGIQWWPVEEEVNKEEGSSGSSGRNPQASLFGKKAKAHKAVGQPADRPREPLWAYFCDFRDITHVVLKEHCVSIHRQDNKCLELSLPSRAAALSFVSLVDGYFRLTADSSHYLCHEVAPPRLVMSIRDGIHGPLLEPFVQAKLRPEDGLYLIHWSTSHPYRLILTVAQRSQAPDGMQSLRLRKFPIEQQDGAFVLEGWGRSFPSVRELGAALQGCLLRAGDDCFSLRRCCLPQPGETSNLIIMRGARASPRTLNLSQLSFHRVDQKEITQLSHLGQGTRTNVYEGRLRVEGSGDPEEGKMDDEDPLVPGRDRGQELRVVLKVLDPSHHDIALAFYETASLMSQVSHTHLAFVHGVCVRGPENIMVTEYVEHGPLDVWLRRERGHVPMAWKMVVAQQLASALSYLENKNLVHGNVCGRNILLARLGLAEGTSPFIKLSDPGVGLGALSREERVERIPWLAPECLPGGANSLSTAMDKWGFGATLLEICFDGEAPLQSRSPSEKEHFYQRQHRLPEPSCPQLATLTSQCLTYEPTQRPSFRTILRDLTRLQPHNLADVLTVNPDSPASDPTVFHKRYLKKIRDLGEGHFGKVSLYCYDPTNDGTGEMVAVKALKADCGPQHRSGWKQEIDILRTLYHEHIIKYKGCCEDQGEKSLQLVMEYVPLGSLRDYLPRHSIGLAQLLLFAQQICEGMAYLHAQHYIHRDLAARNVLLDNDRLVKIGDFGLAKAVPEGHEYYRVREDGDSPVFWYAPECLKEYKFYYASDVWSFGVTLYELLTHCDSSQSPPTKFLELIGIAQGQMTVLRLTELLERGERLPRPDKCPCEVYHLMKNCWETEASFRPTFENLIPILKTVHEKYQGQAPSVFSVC
Chain of JAK2 (O60674 whole entry): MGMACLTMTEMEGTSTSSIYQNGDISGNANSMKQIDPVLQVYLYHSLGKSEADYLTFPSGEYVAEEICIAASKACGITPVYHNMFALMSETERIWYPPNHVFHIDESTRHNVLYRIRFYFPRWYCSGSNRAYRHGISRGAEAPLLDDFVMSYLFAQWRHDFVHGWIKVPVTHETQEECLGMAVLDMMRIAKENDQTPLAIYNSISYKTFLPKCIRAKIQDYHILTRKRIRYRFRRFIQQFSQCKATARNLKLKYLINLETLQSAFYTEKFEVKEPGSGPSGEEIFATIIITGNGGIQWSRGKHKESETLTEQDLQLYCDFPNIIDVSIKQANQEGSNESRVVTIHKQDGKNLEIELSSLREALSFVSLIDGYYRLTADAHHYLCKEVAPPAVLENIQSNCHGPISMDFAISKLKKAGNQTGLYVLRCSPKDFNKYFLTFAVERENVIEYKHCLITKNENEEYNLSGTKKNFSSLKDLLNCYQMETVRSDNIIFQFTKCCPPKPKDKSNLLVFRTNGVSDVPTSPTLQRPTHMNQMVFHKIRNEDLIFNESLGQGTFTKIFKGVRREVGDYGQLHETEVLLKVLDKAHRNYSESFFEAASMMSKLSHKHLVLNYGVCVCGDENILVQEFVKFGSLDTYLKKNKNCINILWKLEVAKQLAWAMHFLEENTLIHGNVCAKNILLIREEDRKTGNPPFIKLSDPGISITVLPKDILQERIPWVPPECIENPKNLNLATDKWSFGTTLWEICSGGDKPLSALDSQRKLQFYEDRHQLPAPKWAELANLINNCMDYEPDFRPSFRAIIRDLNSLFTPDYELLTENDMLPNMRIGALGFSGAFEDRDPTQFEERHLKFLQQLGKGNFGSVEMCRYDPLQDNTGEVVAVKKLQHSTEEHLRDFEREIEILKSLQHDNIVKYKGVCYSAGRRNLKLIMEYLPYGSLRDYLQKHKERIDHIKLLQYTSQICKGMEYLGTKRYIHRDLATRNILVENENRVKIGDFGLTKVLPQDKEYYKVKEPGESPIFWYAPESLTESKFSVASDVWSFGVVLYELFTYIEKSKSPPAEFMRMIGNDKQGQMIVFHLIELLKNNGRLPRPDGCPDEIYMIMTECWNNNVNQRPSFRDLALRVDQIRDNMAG

Row | Compound | JAK 2 (pKi) (JAK2) | Tyk 2 (pKi) (Tyk2) | Tall-1 (pIC50) [1, 2] | JAK 3 (pKi) (JAK3) | JAK3 (pKi)-JAK1 (pKi) (JAK3; [3]) | JAK 1 (pKi) (JAK1) | Tall-1 (pIC50) [1, 4] | JAK3 (pKi)-JAK1 (pKi) (JAK3; [5])
1 | C=CC(=O)N1CC(CCn2c(=O)ccc3cnc(Nc4ccc(N5CCN(C)CC5)c(C#N)c4)nc32)C1 [Example 9, 5-((8-(2-(1-acryloylazetidin-3-yl)ethyl)-7-oxo-7,8-dihydropyrido[2,3-d]pyrimidin-2-yl)amino)-2-(4-methylpiperazin-1-yl)benzonitrile] | E (E represents a pKi value of 7 or below (Ki of 100 nM or above)) | E (E represents a pKi value of 7 or below (Ki of 100 nM or above)) | B (B represents a pC50 value between 6.7 (included) and 7.5 (IC50 between 200 nM and 32 nM)) | B (B represents pKi value between 9 and 10 (Ki between 1 nM and 0.1 nM)) | A (A represents a value of 3 or above) | E (E represents a pKi value of 7 or below (Ki of 100 nM or above)) |  | 
2 | C=CC(=O)N1CCN(C(C)Cn2c(=O)ccc3cnc(Nc4ccc(N5CCN(C)CC5)cc4)nc32)CC1 (centres unmarked) [Example 218] |  |  | C (C represents a pIC50 value between 6 and 6.7 (IC50 between 1 μM and 200 nM)) | C (C represents a pKi value between 8 and 9 (Ki between 10 nM and 1 nM)) | B (B represents a value of 2.5 to 3) | E (E represents a pKi value of 7 or below (Ki of 100 nM or above)) |  | 
3 | C=CC(=O)N1CCN(CCn2c(=O)ccc3cnc(Nc4ccc(N5C[C@@H](C)N(C)[C@@H](C)C5)cc4)nc32)[C@@H](CC)C1 [Example 222] |  |  | A (A represents a pIC50 value≥7.5 (IC50≤32 nM)) | B (B represents pKi value between 9 and 10 (Ki between 1 nM and 0.1 nM)) | A (A represents a value of 3 or above) | E (E represents a pKi value of 7 or below (Ki of 100 nM or above)) |  | 
4 | C=CC(=O)N1CC(CCn2c(=O)ccc3cnc(Nc4ccc(N5C[C@@H](C)N(C)C[C@@H]5C)cc4)nc32)C1 [Example 253] |  |  |  | A (A represents a pKi value≥10 (Ki≤0.1 nM)) |  | E (E represents a pKi value of 7 or below (Ki of 100 nM or above)) | B (B represents a pC50 value between 6.7 (included) and 7.5 (IC50 between 200 nM and 32 nM)) | A (A represents a value of 3 or above)
5 | C=CC(=O)N1CC(CCn2c(=O)ccc3cnc(Nc4ccn(CC)n4)nc32)C1 [Example 254] |  |  |  | B (B represents pKi value between 9 and 10 (Ki between 1 nM and 0.1 nM)) |  | E (E represents a pKi value of 7 or below (Ki of 100 nM or above)) | B (B represents a pC50 value between 6.7 (included) and 7.5 (IC50 between 200 nM and 32 nM)) | A (A represents a value of 3 or above)
6 | C=CC(=O)N1CCN(CCn2c(=O)ccc3cnc(Nc4ccn(CC)n4)nc32)[C@@H](C)C1 [Example 255] |  |  |  | B (B represents pKi value between 9 and 10 (Ki between 1 nM and 0.1 nM)) |  | E (E represents a pKi value of 7 or below (Ki of 100 nM or above)) | C (C represents a pIC50 value between 6 and 6.7 (IC50 between 1 μM and 200 nM)) | A (A represents a value of 3 or above)
7 | C=CC(=O)N1CCN(CCn2c(=O)ccc3cnc(Nc4ccn(CC)n4)nc32)[C@@H](CC)C1 [Example 256] |  |  |  | B (B represents pKi value between 9 and 10 (Ki between 1 nM and 0.1 nM)) |  | E (E represents a pKi value of 7 or below (Ki of 100 nM or above)) | C (C represents a pIC50 value between 6 and 6.7 (IC50 between 1 μM and 200 nM)) | A (A represents a value of 3 or above)
8 | C=CC(=O)N1CC(CCn2c(=O)ccc3cnc(Nc4ccn(C(C)C)n4)nc32)C1 [Example 257] |  |  |  | B (B represents pKi value between 9 and 10 (Ki between 1 nM and 0.1 nM)) |  | E (E represents a pKi value of 7 or below (Ki of 100 nM or above)) | B (B represents a pC50 value between 6.7 (included) and 7.5 (IC50 between 200 nM and 32 nM)) | A (A represents a value of 3 or above)
9 | C=CC(=O)N1CCN(CCn2c(=O)ccc3cnc(Nc4ccn(C(C)C)n4)nc32)[C@@H](C)C1 [Example 258] |  |  |  | B (B represents pKi value between 9 and 10 (Ki between 1 nM and 0.1 nM)) |  | E (E represents a pKi value of 7 or below (Ki of 100 nM or above)) | C (C represents a pIC50 value between 6 and 6.7 (IC50 between 1 μM and 200 nM)) | A (A represents a value of 3 or above)
10 | C=CC(=O)N1CCN(CCn2c(=O)ccc3cnc(Nc4ccn(C(C)C)n4)nc32)[C@@H](CC)C1 [Example 259] |  |  |  | B (B represents pKi value between 9 and 10 (Ki between 1 nM and 0.1 nM)) |  | E (E represents a pKi value of 7 or below (Ki of 100 nM or above)) | C (C represents a pIC50 value between 6 and 6.7 (IC50 between 1 μM and 200 nM)) | A (A represents a value of 3 or above)
11 | C=CC(=O)N1CC(C)(CCn2c(=O)ccc3cnc(Nc4ccc(N5CCN(C)CC5)cc4)nc32)C1 [Example 260] |  |  |  | B (B represents pKi value between 9 and 10 (Ki between 1 nM and 0.1 nM)) |  | E (E represents a pKi value of 7 or below (Ki of 100 nM or above)) | A (A represents a pIC50 value≥7.5 (IC50≤32 nM)) | A (A represents a value of 3 or above)
12 | C=CC(=O)N1CCN(CCn2c(=O)ccc3cnc(Nc4cnn(C)c4)nc32)[C@@H](CC#N)C1 [Example 261] |  |  |  | B (B represents pKi value between 9 and 10 (Ki between 1 nM and 0.1 nM)) |  | E (E represents a pKi value of 7 or below (Ki of 100 nM or above)) | B (B represents a pC50 value between 6.7 (included) and 7.5 (IC50 between 200 nM and 32 nM)) | A (A represents a value of 3 or above)
13 | C=CC(=O)N1CCN(CCn2c(=O)ccc3cnc(Nc4cnn(C)c4)nc32)[C@@H](CN(C)C)C1 [Example 262] |  |  |  | C (C represents a pKi value between 8 and 9 (Ki between 10 nM and 1 nM)) |  | E (E represents a pKi value of 7 or below (Ki of 100 nM or above)) | C (C represents a pIC50 value between 6 and 6.7 (IC50 between 1 μM and 200 nM)) | B (B represents a value of 2.5 to 3)
14 | C=CC(=O)N1CCN(CCn2c(=O)ccc3cnc(Nc4ccc(N5C[C@@H](C)N(C)[C@H](C)C5)cc4)nc32)[C@@H](CC)C1 [Example 263] |  |  |  | B (B represents pKi value between 9 and 10 (Ki between 1 nM and 0.1 nM)) |  | E (E represents a pKi value of 7 or below (Ki of 100 nM or above)) | A (A represents a pIC50 value≥7.5 (IC50≤32 nM)) | A (A represents a value of 3 or above)
15 | C=CC(=O)N1CC(CCn2c(=O)ccc3cnc(Nc4ccc(N5C[C@@H](C)N(C)[C@H](C)C5)cc4)nc32)C1 [Example 264] |  |  |  | B (B represents pKi value between 9 and 10 (Ki between 1 nM and 0.1 nM)) |  | E (E represents a pKi value of 7 or below (Ki of 100 nM or above)) | A (A represents a pIC50 value≥7.5 (IC50≤32 nM)) | A (A represents a value of 3 or above)
